In US20240207285A1 (Melt Pharmaceuticals, Inc., priority 2022, published 2024):

How the values were obtained:
[1] = tested on: subjects undergoing cataract extraction with lens replacement (CELR); experiment: Phase 2 subjects achieving procedural sedation (RSS 2 or 3 without rescue); format: in vivo, human; settings: Visit 2 (Day 1), Full Analysis Set
Protocol: A Phase 2 efficacy and safety study of the MELT-300 formulation was conducted at nine sites with over 300 enrolled subjects. MELT-300 is a sublingual, needle- and opioid-free formulation for procedural sedation during cataract surgery. […] MELT-300 utilizes fast-dissolving delivery technology (Zydis®, Catalent Inc.) to rapidly dissolve the tablet for absorption across the sublingual mucosa.
(§1) The Phase 2 study was factorial-designed, randomized, double-blind, placebo-controlled, and included parallel-cohorts. […] Primary efficacy endpoints included appropriate sedation during the cataract surgery and management of intraoperative pain during the surgery.
Achievement of procedural sedation was evaluated for each subject (see TABLE 19). Success for procedural sedation for this Phase 2 study was defined as achieving target sedation level (Ramsay Sedation Scale (RSS) scale level 2 or 3) at the start of surgery without the need for rescue sedation medication, and no need for intraoperative rescue sedation medication to maintain target sedation level.

[2] = tested on: subjects undergoing cataract extraction with lens replacement (CELR); experiment: Phase 2 mean intraoperative analgesia by the numeric pain rating scale; format: in vivo, human
Protocol: An average of the available timepoints was also calculated.

[3] = tested on: subjects undergoing cataract extraction with lens replacement (CELR); experiment: Phase 2 subject-rated worst pain during surgery by the numeric pain rating scale; format: in vivo, human; settings: carry forward
[4] = tested on: subjects undergoing cataract extraction with lens replacement (CELR); experiment: Phase 2 subjects achieving analgesia response (NPRS <4); format: in vivo, human; settings: Visit 2 (Day 1), observed
Protocol: (§2) The number of subjects achieving analgesia response (observed) in the full analysis set was determined. Success in analgesia response was defined as NPRS <4 at the available at the available four intraoperative timepoints and a failure otherwise (e.g., any interoperative pain rescue was assumed to be a failure. Results are provided in TABLE 24. The number of subjects completing the surgery is provided in TABLE 25, and the number of subjects completing the surgery without interruption is provided in TABLE 26. For this measure, subjects completing the surgery without interruption (other than rescue medication) due to pain or anxiety were considered successes. The number of subjects requiring rescue sedative medication and those requiring analgesic medication are provided in TABLES 27 and 28, respectively. For all TABLES 24-28, p-Values between pairs of treatments were calculated and are provided.

[5] = tested on: subjects undergoing cataract extraction with lens replacement (CELR); experiment: Phase 2 subjects completing the surgery; format: in vivo, human; settings: Visit 2 (Day 1); Full Analysis Set
Protocol: as §2

[6] = tested on: subjects undergoing cataract extraction with lens replacement (CELR); experiment: Phase 2 subjects completing the surgery without interruption; format: in vivo, human; settings: Visit 2 (Day 1); Full Analysis Set
Protocol: as §2

[7] = tested on: subjects undergoing cataract extraction with lens replacement (CELR); experiment: Phase 2 subjects requiring rescue sedative medication; format: in vivo, human; settings: Visit 2 (Day 1)
Protocol: as §2

[8] = tested on: subjects undergoing cataract extraction with lens replacement (CELR); experiment: Phase 2 subjects requiring rescue analgesic medication; format: in vivo, human; settings: Visit 2 (Day 1); Full Analysis Set
Protocol: as §2

[9] = tested on: subjects undergoing cataract extraction with lens replacement (CELR); experiment: Phase 2 subjects wanting study drug again for a second surgery (11-point Likert scale); format: in vivo, human
Description: Post-operation, subjects were asked whether they would want the study drug again for a second surgery using an 11-point Likert scale of 0 (not likely at all) to 10 (extremely likely).

[10] = tested on: subjects undergoing cataract extraction with lens replacement (CELR); experiment: Phase 2 subjects receiving opioid concomitant medication postoperatively; format: in vivo, human
[11] = tested on: subjects undergoing cataract extraction with lens replacement (CELR); experiment: Phase 2 treatment-emergent ocular adverse events (study eye, non-study eye, either eye); settings: for Eye disorders, % / General disorders and administration site conditions, % / Infections and infestations, % / Injury, poisoning and procedural complications, % / Investigations, %: system organ class
Protocol: as §1
The study eye (TABLE 31) non-study eye (TABLE 32), or either eye (TABLE 33) was assessed. TEAES were defined as events that started on or after the date of the study drug administration through the end of Visit 4 or early withdrawal. Subjects with one or more adverse event within a level of Medical Dictionary for Regulatory Activities (MedDRA) were counted only once in that level.

[12] = Average of available timepoints, adjusted for site table, carry forward
[13] = Average of available timepoints, carry forward
[14] = Average of available timepoints, observed
[15] = Corneal incision, adjusted for site table, carry forward
[16] = Corneal incision, carry forward
[17] = Insertion of the phacoemulsion probe, adjusted for site table, carry forward
[18] = Insertion of the phacoemulsion probe, carry forward
[19] = Insertion of the phacoemulsion probe, observed
[20] = Insertion of the speculum, adjusted for site table, carry forward
[21] = Insertion of the speculum, carry forward
[22] = Insertion of the speculum, observed
[23] = Insertion of the synthetic replacement lens, adjusted for site table, carry forward
[24] = Insertion of the synthetic replacement lens, carry forward
[25] = Insertion of the synthetic replacement lens, observed
[26] = adjusted for site, carry forward
[27] = carry forward, repeated measures model
[28] = observed, repeated measures model
[29] = 11-point Likert scale 0 (not likely at all) to 10 (extremely likely)

## Cc1ncc2n1-c1ccc(Cl)cc1C(c1ccccc1F)=NC2 [Midazolam 3 mg]
[1]
  Subjects achieving procedural sedation: No, %: 35.8%
[1]; RSS 2 or 3 without rescue sedation
  Subjects achieving procedural sedation: Yes, %: 64.2%
[2]; Average of available timepoints, adjusted for site (study center covariate), carry forward
  Intraoperative NPRS, LS Mean: 2.12
[2]; [12]
  Intraoperative NPRS, mean: 2.37
  Intraoperative NPRS, median: 2.00
[2]; [13]
  Intraoperative NPRS, mean: 2.37
  Intraoperative NPRS, median: 2.00
[2]; Average of available timepoints, carry forward, repeated measures model
  Intraoperative NPRS, LS Mean: 2.37
[2]; [14]
  Intraoperative NPRS, mean: 2.18
  Intraoperative NPRS, median: 2.00
[2]; Average of available timepoints, observed, repeated measures model
  Intraoperative NPRS, LS Mean: 2.46
[2]; [15]
  Intraoperative NPRS, mean: 1.8
  Intraoperative NPRS, median: 1.0
[2]; [16]
  Intraoperative NPRS, mean: 1.8
  Intraoperative NPRS, median: 1.0
[2]; Corneal incision, observed
  Intraoperative NPRS, mean: 1.8
  Intraoperative NPRS, median: 1.0
[2]; [17]
  Intraoperative NPRS, mean: 2.9
  Intraoperative NPRS, median: 3.0
[2]; [18]
  Intraoperative NPRS, mean: 2.9
  Intraoperative NPRS, median: 3.0
[2]; [19]
  Intraoperative NPRS, mean: 2.5
  Intraoperative NPRS, median: 2.0
[2]; [20]
  Intraoperative NPRS, mean: 1.1
  Intraoperative NPRS, median: 0.0
[2]; [21]
  Intraoperative NPRS, mean: 1.1
  Intraoperative NPRS, median: 0.0
[2]; [22]
  Intraoperative NPRS, mean: 1.1
  Intraoperative NPRS, median: 0.0
[2]; [23]
  Intraoperative NPRS, mean: 3.6
  Intraoperative NPRS, median: 4.0
[2]; [24]
  Intraoperative NPRS, mean: 3.6
  Intraoperative NPRS, median: 4.0
[2]; [25]
  Intraoperative NPRS, mean: 2.9
  Intraoperative NPRS, median: 3.0
[2]; [26]
  Intraoperative NPRS, LS Mean Difference versus ketamine: 0.22
  Intraoperative NPRS, LS Mean Difference versus placebo: −0.08
[2]; [27]
  Intraoperative NPRS, LS Mean Difference versus ketamine: 0.20
  Intraoperative NPRS, LS Mean Difference versus placebo: −0.12
[2]; [28]
  Intraoperative NPRS, LS Mean Difference versus ketamine: 0.24
  Intraoperative NPRS, LS Mean Difference versus placebo: −0.01
[3]
  Worst Pain During Surgery, Mean Difference versus ketamine: 0.38
  Worst Pain During Surgery, Mean Difference versus placebo: 0.05
[3]; Full Analysis Set
  Worst Pain During Surgery (NPRS), mean: 4.0
  Worst Pain During Surgery (NPRS), median: 4.0
[4]; NPRS <4 at four intraoperative timepoints
  Subjects achieving analgesia response: Yes, %: 40.7%
[4]
  Subjects achieving analgesia response: No, %: 59.3%
[5]
  Subjects completing the surgery: No, %: 0 (0) %
  Subjects completing the surgery: Yes, %: 100.0%
[6]
  Subjects completing the surgery without interruption: No, %: (0) %
  Subjects completing the surgery without interruption: Yes, %: (100.0) %
[7]; Full Analysis Set
  Subjects requiring rescue sedative medication: No, %: (65.4) %
  Subjects requiring rescue sedative medication: Yes, %: (34.6) %
[7]; Intraoperatively
  Subjects requiring rescue sedative medication: Intraoperatively, %: (8.6) %
[7]; Pre-operatively
  Subjects requiring rescue sedative medication: Pre-operatively, %: (25.9) %
[8]
  Subjects requiring rescue analgesic medication: No, %: (56.8) %
  Subjects requiring rescue analgesic medication: Yes, %: (43.2) %
[9]; [29]
  Want Study Drug Again, mean: 8.4
  Want Study Drug Again, median: 10.0
[9]; unpaired t-test
  Want Study Drug Again, Mean Difference versus ketamine: 0.80
  Want Study Drug Again, Mean Difference versus placebo: 0.75
[10]; Day 2
  Received Postoperative Opioid on Day 2: No, %: (100.0) %
  Received Postoperative Opioid on Day 2: Yes, %: (0.0) %
[10]; Day 2-8
  Received Postoperative Opioid on Day 2-8: No, %: (100.0) %
  Received Postoperative Opioid on Day 2-8: Yes, %: (0.0) %
[11]; Either Eye
  Cataract operation complication, %: (0) %
  Conjunctivitis bacterial, %: (0) %
  Corneal abrasion, %: (0) %
  Corneal oedema, %: (0) %
  Endophthalmitis, %: (0) %
  Eye pain, %: (3.4) %
  Foreign body sensation in eyes, %: (0) %
  Intraocular pressure increased, %: (2.3) %
  Ocular hypertension, %: (1.1) %
  Pain, %: (0) %
  Paracentesis eye, %: (0) %
  Procedural pain, %: (1.1) %
  Subjects with Any Treatment-Emergent Ocular AEs, %: (9.2) %
  Vision blurred, %: (1.1) %
  Eye disorders, %: (5.7) %
  General disorders and administration site conditions, %: (0) %
  Infections and infestations, %: (0) %
  Injury, poisoning and procedural complications, %: (1.1) %
  Investigations, %: (2.3) %
[11]; Non-Study Eye
  Conjunctivitis bacterial, %: (0) %
  Eye pain, %: (0) %
  Subjects with Any Treatment-Emergent Ocular AEs, %: (1.1) %
  Vision blurred, %: (1.1) %
  Eye disorders, %: (1.1) %
  Infections and infestations, %: (0) %
[11]; Study Eye
  Cataract operation complication, %: (0) %
  Corneal abrasion, %: (0) %
  Corneal oedema, %: (0) %
  Endophthalmitis, %: (0) %
  Eye pain, %: (3.4) %
  Foreign body sensation in eyes, %: (0) %
  Intraocular pressure increased, %: (2.3) %
  Ocular hypertension, %: (1.1) %
  Pain, %: (0) %
  Procedural pain, %: (1.1) %
  Subjects with Any Treatment-Emergent Ocular AEs, %: (8.0) %
  Eye disorders, %: (4.6) %
  General disorders and administration site conditions, %: (0) %
  Infections and infestations, %: (0) %
  Injury, poisoning and procedural complications, %: (1.1) %
  Investigations, %: (2.3) %
[11]; printed in the Non-Study Eye table
  Paracentesis eye, %: (0) %
